The subject of one assay is platelets. Nature of the assay: Platelet adhesion to protein-coated Vena8 channels under flow. The assay is classed as cell-based, human. The settings on record: for Platelet adhesion to fibrinogen-coated plates after pre-incubation of platelets with peptide / Platelet adhesion to fibronectin-coated plates after pre-incubation of platelets with peptide: PRP pre-incubated with 2 mM peptide 20 min. How it is done:
Platelet adhesion experiments were performed using the Vena8 flow chamber described above. Fibrinogen and fibronectin (Sigma) were dissolved in PBS to a final concentration of 200 mcg/ml. Channels of the Vena8 chips were incubated at room temperature in a humidified chamber for 2 hours with the protein solution, autologous plasma, or PBS alone. The channels were washed with 5× the volume RPMI. Platelet-rich-plasma was then perfused through the protein-coated channel at the indicated shear-stress, held constant. For each channel, still images were acquired exactly 90 seconds into the experiment at 4 pre-defined low power fields located along the flow path (fields were centered at 2500, 7500, 12500, and 17500 microns from the start point of infusion).
Some experiments involved pre-treating platelet-rich-plasma with protein fragments prior to infusion through the channels. Small RGD peptides, containing the amino-acid sequence Arg-Gly-Asp-Ser; DRG peptides, contain the amino-acid sequence Ser-Asp-Gly-Arg; or fragment 400-411 of fibrinogen, containing the amino-acid sequence His-His-Leu-Gly-Gly-Ala-Lys-Gln-Ala-Gly-Asp-Val, were incubated at a concentration of 2 mM with PRP for 20 minutes at room temperature. The PRP was then perfused through the channels as previously described.

For assay [1], the target named is β1 integrin (CD29), active (open) conformation, on monocytes (human) (UniProt P05556). Nature of the assay: flow cytometry of monocytes before passage through the plates.
β1 integrin (CD29), active (open) conformation, on monocytes (human), sequence (P05556 21-798): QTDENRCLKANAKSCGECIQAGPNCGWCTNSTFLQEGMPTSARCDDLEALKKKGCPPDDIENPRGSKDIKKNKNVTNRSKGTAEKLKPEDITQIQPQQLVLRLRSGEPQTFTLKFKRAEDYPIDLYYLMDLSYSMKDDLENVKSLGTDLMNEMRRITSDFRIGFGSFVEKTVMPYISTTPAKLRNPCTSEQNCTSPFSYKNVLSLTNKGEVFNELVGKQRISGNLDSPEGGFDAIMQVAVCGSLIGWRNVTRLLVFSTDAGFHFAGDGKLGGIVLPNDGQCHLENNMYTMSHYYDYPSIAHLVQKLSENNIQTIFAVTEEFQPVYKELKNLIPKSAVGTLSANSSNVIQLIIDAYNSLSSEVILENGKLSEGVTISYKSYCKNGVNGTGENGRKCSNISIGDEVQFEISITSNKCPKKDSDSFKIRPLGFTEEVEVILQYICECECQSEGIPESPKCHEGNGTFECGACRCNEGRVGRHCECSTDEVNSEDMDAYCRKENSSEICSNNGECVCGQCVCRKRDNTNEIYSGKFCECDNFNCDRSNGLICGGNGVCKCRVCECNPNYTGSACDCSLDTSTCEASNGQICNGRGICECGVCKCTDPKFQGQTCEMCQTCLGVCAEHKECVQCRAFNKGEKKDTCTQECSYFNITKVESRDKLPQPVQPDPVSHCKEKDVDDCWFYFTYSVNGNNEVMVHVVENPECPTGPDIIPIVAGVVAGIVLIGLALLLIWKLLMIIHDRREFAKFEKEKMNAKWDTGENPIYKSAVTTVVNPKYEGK
The target is the same in assay [2]. Description: flow cytometry of monocytes immediately after flow over platelet-coated plates, low number of platelet interactions.
For assay [3] the target is unchanged. Nature of the assay: flow cytometry of monocytes immediately after flow over platelet-coated plates, high number of platelet interactions. Background: A flow cytometer gives signals particle by particle.
Assay [4] has as its system monocyte-platelet interactions. Description: Monocyte-platelet interactions on platelet-coated plates under flow (receptor-ligand studies). The assay is classed as cell-based, human. The method, then: Platelet-coated Vena8 channels were pre-treated with either 40 μg/ml anti-P-selectin (R&D Systems) or 40 μg/ml of an isotype control for 30 minutes at room temperature, then washed with 5× the volume RPMI. Mononuclear cell suspensions were pre-treated with either RGD or DGR peptides at a concentration of 2.5 mM. Video samples lasting 400 frames (26.3 seconds) were recorded 60 seconds after commencement of flow using a lower power field of view spanning 400 microns and centered at 7500 microns from the flow start point.
The monocyte-platelet interactions observed on video were divided into two categories: (1) short-acting, arbitrarily defined as contact occurring for less than 3 seconds (46 frames), and (2) long-acting, defined as contact longer than 3 seconds, including stable binding. Since it had been previously determined that the platelets in the ECP system were in an activated state, and that activated platelets express an array of proteins including P-selectin and RGD containing proteins (e.g. fibronectin, fibrinogen, and vitronectin), it was sought to determine the involvement, if any, of these proteins in either short or long-duration interactions. Plates were pre-coated with platelets, and four conditions tested: (1) platelets pre-treated with an irrelevant isotype control, and monocytes untreated (P+RGD+); (2) platelets pre-treated with an irrelevant isotype control, and monocytes pre-incubated with RGD peptides (P+RGD−); (3) platelets pre-treated with anti-P-selectin, and monocytes untreated (P−RGD+); (4) platelets pre-treated with anti-P-selectin, and monocytes pre-treated with RGD peptides (P−RGD−). It was assumed that pre-treating monocytes with RGD peptides should result in a decreased in the number of free RGD-recognizing receptors available to interact with RGD-containing proteins expressed by the platelets. […] As shown by FIG. 6, both short-acting and long-acting interactions were maximal when neither RGD nor P-selectin were blocked (P+RGD+); the level of interaction in all other conditions was expressed as a percentage of this maximum. […]

In the next assay the test system is GILZ. Description: GILZ mRNA expression in CD11c+ MoDC (quantitative real-time PCR). The settings on record: relative to untreated MoDC cultured alone; 24 hr (FIG. 13B); dex 100 nM; PUVA 100 ng/mL, 1 J/cm^2. The assay is classed as cell-based, human. The method, then: Monocytes were cultured at a density of 5×10^6 cells/mL in 6- and 12-well polystyrene tissue culture plates at 37° C. and 5% CO2 in RPMI-1640 (Gibco) supplemented with heat-inactivated 15% AB serum (Gemini) and 1% penicillin/streptomycin (now referred to as complete media). 800 IU/mL recombinant human GM-CSF (R&D Systems) and 1000 IU/mL recombinant human IL-4 (R&D Systems) were added to cultures for 36 hr to induce monocyte to DC differentiation as described.
Non-adherent cells (purity: 66.0±4.5% CD3^+) removed during plastic adherence will now be generally referred to as lymphocytes. Lymphocytes were treated with 8-MOP (100 ng/mL) and UVA (1 J/cm^2), washed with PBS, and co-cultured in complete media at 37° C. and 5% CO2 with either PUVA-treated or untreated-MoDC in a ratio of 5 or 10 lymphocytes to 1 MoDC. […] 24 hr after LPS stimulation, cells were harvested for RNA isolation and immunophenotyping, and supernatants were collected for cytokine quantification.
RNA was isolated from CD11c^+ MoDC using QIAShredder columns (QIAGEN) and the RNeasy Mini Kit (QIAGEN) with on-column Dnase I treatment (QIAGEN). RNA yield and purity were assessed using a NanoDrop ND-1000 spectrophotometer. cDNA was obtained using the High Capacity cDNA Reverse Transcription Kit (Applied Biosystems) in a 96-well thermocycler (MJ Research PTC-200). […]
In general terms: In qPCR the cycle at which signal appears reflects the starting amount.

In assay [5] the test system is MoDC. Nature of the assay: IL-10 and IL-12p70 ELISA in siRNA experiments. The format is cell-based, human. The note with it: siRNA experiment, not transfected. How it is done:
Silencer select pre-designed and validated GILZ siRNA (Invitrogen), with off-target prediction algorithms, was used to knockdown GILZ expression. Mo-DC were transfected using Lipofectamine RNAiMAX Reagent (Invitrogen). RNAi duplex and lipofectamine reagent were incubated together for 20 min, then added to MoDC cultures and incubated for 2 hr at 37° C. and 5% CO2. Transfected MoDC were treated in an identical fashion as described for the MoDC/lymphocyte co-cultures. MoDC were also transfected with scramble siRNA.
(§1) Culture supernatants were analyzed in a multiplex format utilizing magnetic beads to IL-6, IL-8, IL-10, IL-12p70, IFN-γ, TNF-α, RANTES, MCP-1, and MIP-1β (BioRad Laboratories). For siRNA experiments, supernatants were analyzed with enzyme-linked immunosorbent assay (ELISA) kits for IL-10 (R&D Systems) and IL-12p70 (Enzo Life Science). All samples and standards were run in duplicate and analyzed using the LUMINEX 200 (LUMINEX), or the BioTek EL800 (BioTek).
(In general: An ELISA detects its analyte on a solid surface through an enzyme-linked reagent.)

The subject of assay [6] is MoDC. Nature of the assay: Cytokine quantification in MoDC supernatants after LPS stimulation (magnetic bead multiplex). The assay is classed as cell-based, human. The note with it: after LPS; untreated MoDC 6.7. The method, then: Lymphocytes were treated with 8-MOP (100 ng/mL) and UVA (1 J/cm^2), washed with PBS, and co-cultured in complete media at 37° C. and 5% CO2 with either PUVA-treated or untreated-MoDC in a ratio of 5 or 10 lymphocytes to 1 MoDC. MoDC treated for 24 hr with 100 nM dexamethasone (Sigma) served as the positive control group. After 24 hr, cells were harvested and MoDC were re-purified. […] CD11c^+ MoDC were re-plated at 0.5-1.0×10^6 cells/mL in complete media and stimulated with 100 ng/mL LPS (Sigma). 24 hr after LPS stimulation, cells were harvested for RNA isolation and immunophenotyping, and supernatants were collected for cytokine quantification.
as §1

For assay [7], the target named is RGD-recognizing receptors (on monocytes). Nature of the assay: cell-based or functional assay.
Where [8] appears, read: 0.5 dyne/cm2, relative to P+RGD+ maximum.

Results on six molecules are retold here after patent publication US20160298082A1, “METHOD FOR OBTAINING IMMUNO-STIMULATORY DENDRITIC CELLS” (TRANSIMMUNE AG, priority 2013, published 2016).

Entries after “also recorded” stand apart in the source; their conditions may differ. No end group written: not given here. Where only a bound is given, the exact number is not on record here.

With fibrinogen, the “Platelet adhesion to plates coated with the protein” value in the assay on platelets (coating 200 mcg/ml, wall shear stress 0.2 to 6.0 dyne/cm^2) is given as “highest concentrations of platelets adhered”.
Consider “anti-CD29 HUTS-21 (BD Biosciences) (antibody)”, for which the percent of monocytes that bound the antibody (baseline integrin activation) in assay [1] is < 10%. Also, the percent of monocytes that bound the antibody (β1 in the active form) in assay [2] was 9%; in [3] it was 71%.
In the case of “Arg-Gly-Asp-Ser (RGDS; printed: Arg-Gly-Asp-Ser) [RGD peptides, small RGD peptides]”, in the assay with platelets, the “Platelet adhesion to fibrinogen-coated plates after pre-incubation of platelets with peptide” value is on record as “not significantly altered” and the “Platelet adhesion to fibronectin-coated plates after pre-incubation of platelets with peptide” value is on record as “decreased adhesion significantly”. Further, in [4] (setting [8]), the “Long-duration (>3 s) monocyte-platelet interactions” value was “significant decrease” and the “Short-duration (<3 s) monocyte-platelet interactions” value was “did not significantly alter; also recorded: no change”. Also, the “Decrease of long-duration monocyte-platelet interactions” value in assay [4] (monocytes pre-incubated with RGD peptides 2.5 mM (P+RGD−)) was 44%.
Regarding “HHLGGAKQAGDV [gamma fragments, gamma component of fibrinogen, amino acids 400-411]”, in the assay with platelets, the “Platelet adhesion to fibrinogen-coated plates after pre-incubation of platelets with peptide” value was “decreased” and the “Platelet adhesion to fibronectin-coated plates after pre-incubation of platelets with peptide” value was “had no effect”. The “Platelet adhesion to fibrinogen-coated plates after pre-incubation of platelets with peptide” value with platelets (listed as peptide fragments corresponding to amino acids 400-411 of fibrinogen) is on record as “significantly decreased”.
As to `C[C@@H]1C[C@H]2[C@@H]3CCC4=CC(=O)C=C[C@]4(C)[C@@]3(F)[C@@H](O)C[C@]2(C)[C@@]1(O)C(=O)CO` [dexamethasone], the “GILZ up-regulation, MoDC cultured alone” value in the assay on GILZ was 4.29 fold. Further, the “IL-10 to IL-12p70 ratio, non-transfected MoDC cultured alone” value in the assay with MoDC [5] came out at 15.3. Besides, the “Ratio of IL-10 to IL-12p70, MoDC cultured alone” value in the assay with MoDC [6] amounted to 67.7.

B1: RGD peptides, containing the amino-acid sequence Arg-Gly-Asp-Ser (peptide)
peptide: RGDS
Turning to B1, the long-duration monocyte-platelet interactions under flow (video microscopy) in assay [7] was 44%.
